Assays:
[1] = tested on: skeletal muscle ischemia/reperfusion injury; test: Mouse hindlimb ischemia and reperfusion model, Evans Blue dye staining of gastrocnemius muscle, wild-type mice; type: in vivo, mouse (C57BL6 wild-type); conditions: WT mice; for EBD-positive area: ligand alone i.p. 2 h before 90 min ischemia, PBS vehicle 28%±6%; for EBD-positive area, agonist plus DPCPX: A1 antagonist DPCPX 0.2 mg/kg i.p. 30 min before agonist; for EBD-positive area, agonist plus MRS1191: A3 antagonist MRS1191 0.05 mg/kg i.p. 30 min before agonist
Experimental: Mouse Hindlimb Ischemia and Reperfusion Model: After 2.5- to 3-month-old wild-type (WT; C57BL6 strain) or PLC β2/β3 knockout mice (in C57BL6 background), each weighing about 23-25 g, were sedated with anesthetic (pentobarbital 50 mg/kg was given by intraperitoneal [i.p.] injection), their right or left hindlimbs (used randomly) were elevated briefly to minimize retained blood before being subjected to ischemia. Ischemia was induced by placement of a constrictor band (Latex O-Rings, Miltex Instruments, York, Pa.) above the greater trochanter with a McGiveney Hemorrhoidal Ligator (7 in long; Miltex). After 90 minutes of warm ischemia at 37° C., the constrictor was removed to allow reperfusion for 24 hours. The mice were continuously maintained on a 37° C. warming pad (Physitemp Instruments Inc, Clifton, N.J.) during the reperfusion. After the mice were killed by anesthetic overdose, the gastrocnemius muscle was quickly frozen, cut into three slices separated by 2-3 mm, and embedded in Shandon Cryomatrix (polyvinyl alcohol 10%, polyethylene glycol 4%; Anatomical Pathology U.S.A., Pittsburgh, Pa.). Each slice was processed as one 10 μm section on a Thermo Electron/Shandon Cryotome (Anatomical Pathology), fixed in ice-cold acetone, air dried, and washed in phosphate-buffered saline (PBS). Each 10 μm section had seven fields. Gastrocnemius was used because of its high proportion of fast-twitch muscle, which is prone to ischemia and reperfusion injury.
Quantification of Skeletal Muscle Injury: Evans Blue dye (EBD), prepared as a 1% wt/vol solution to yielding 1 mg of EBD/10 g body weight), was given via a separate i.p. injection 2.5 hours before the induction of ischemia. EBD stained only injured muscle and EBD-positive cells were quantified. The percent EBD-positive cells in each field was averaged with those from all seven fields within one 10 μm section. The averaged fraction of EBD-positive cells in each 10 μm section was similar among the three sections. Each 10 μm section was also stained with rabbit polyclonal anti-skeletal muscle actin antibodies (ab15265; Abcam Inc, Cambridge, Mass.) and goat polyclonal anti-rabbit IgG conjugated with fluorescein isothiocyanate. Sections were mounted, and their cross sections were viewed with fluorescent microscopy (Evans Blue dye [EBD]-positive cells via a DM580 band pass filter 510-560 nm with emission of 590 nm; fluorescein isothiocyanate cells via a DM510 filter of 450-490 nm with emission at 520 nm). Each field was counted at 20× magnification and their images captured via the two filters for quantification of muscle injury as follows. Images were acquired and stored as JPEG files with a Macrofire camera (Macrofire 1.0, Optronics, Goleta, Calif.). The ImageProPlus Program (version 5.0, Media Cybernetics, Inc, Silver Spring, Md.) was used for the quantitative determination. The percentage of EBD-positive areas was calculated by dividing the area of EBD staining by the total muscle cells, a quantity defined as the total area stained by anti-skeletal muscle actin antibodies and was identical to the total area in each field minus the area not occupied by any cell. The actin-stained area included EBD-positive area, as shown in superimposed EBD- and actin antibody-stained images. Serum creatine kinase (CK) activity was measured with a previously described procedure. The fraction of skeletal muscle staining positive for EBD represented a direct determination of the muscle that was injured, and the serum CK level provided a circulating index of the extent of skeletal muscle injury. Both are established and accepted methods to quantify skeletal muscle injury.
Protocol for Administration of Adenosine Receptor Agonist and Antagonist. […]

[2] = tested on: skeletal muscle ischemia/reperfusion injury; test: Mouse hindlimb ischemia and reperfusion model, Evans Blue dye staining, PLC β2/β3-null mice; type: in vivo; conditions: agonist alone i.p. before ischemia/reperfusion, mean±SE, PBS 23.4%±4%
Experimental: Mouse Hindlimb Ischemia and Reperfusion Model: After 2.5- to 3-month-old wild-type (WT; C57BL6 strain) or PLC β2/β3 knockout mice (in C57BL6 background), each weighing about 23-25 g, were sedated with anesthetic (pentobarbital 50 mg/kg was given by intraperitoneal [i.p.] injection), their right or left hindlimbs (used randomly) were elevated briefly to minimize retained blood before being subjected to ischemia. Ischemia was induced by placement of a constrictor band (Latex O-Rings, Miltex Instruments, York, Pa.) above the greater trochanter with a McGiveney Hemorrhoidal Ligator (7 in long; Miltex). After 90 minutes of warm ischemia at 37° C., the constrictor was removed to allow reperfusion for 24 hours. The mice were continuously maintained on a 37° C. warming pad (Physitemp Instruments Inc, Clifton, N.J.) during the reperfusion. […]
Quantification of Skeletal Muscle Injury: Evans Blue dye (EBD), prepared as a 1% wt/vol solution to yielding 1 mg of EBD/10 g body weight), was given via a separate i.p. injection 2.5 hours before the induction of ischemia. EBD stained only injured muscle and EBD-positive cells were quantified. […] Each field was counted at 20× magnification and their images captured via the two filters for quantification of muscle injury as follows. […] The ImageProPlus Program (version 5.0, Media Cybernetics, Inc, Silver Spring, Md.) was used for the quantitative determination. The percentage of EBD-positive areas was calculated by dividing the area of EBD staining by the total muscle cells, a quantity defined as the total area stained by anti-skeletal muscle actin antibodies and was identical to the total area in each field minus the area not occupied by any cell. […] Serum creatine kinase (CK) activity was measured with a previously described procedure. […] Both are established and accepted methods to quantify skeletal muscle injury. […]

[3] = tested on: exercise-induced skeletal muscle injury; test: 15% downhill treadmill exercise-induced skeletal muscle injury, beta-sarcoglycan-null mice (limb-girdle muscular dystrophy model); type: in vivo, mouse (beta-sarcoglycan-null); conditions: beta-sarcoglycan-null mice treated, then exercised
Description: (§1) Wild type (WT), beta-sarcoglycan-deficient, and PLCβ2/β3-null mice were all 8-10 weeks old and have similar body weights. Beta-sarcoglycan-null mice have been developed as a mouse model of limb-girdle muscular dystrophy. PLCβ2/β3-null mice have been used as a model to determine the physiologic role of these enzyme isoforms in mediating the effect of various adenosine receptor subtypes. The 15% downhill treadmill exercise is an established method to cause exertion-related skeletal muscle injury in rodents and has been used to gauge the success of therapy aimed at reducing skeletal muscle injury in mouse models of muscular dystrophy. Mice were exercised to exhaustion and for similar amount of time. […] Thus, only serum CK activity was used to quantify the extent of skeletal muscle injury in these normal WT mice. In the beta-sarcoglycan-null mice, there was already a significant level of skeletal muscle damage at baseline (in the absence of imposed physical exercise, EBD-positive area was 9.7±2.0%, n=28 mice, SE; serum CK was 2363±310, U/L, n=30 mice, SE). Both EBD staining and serum CK were used to quantify the extent of skeletal muscle injury.
Beta-sarcoglycan-null mice were used as a model of Limb-Girdle Muscular Dystrophy. […] The extent of skeletal muscle injury was determined by (FIG. 10) serum CK level and (FIG. 11) percentage of EBD-stained area. […]

[4] = tested on: exercise-induced skeletal muscle injury; test: 15% downhill treadmill exercise-induced skeletal muscle injury, wild-type mice; type: in vivo, mouse (wild type); conditions: wild-type mice injected with agonist, then exercised; P<0.05 vs vehicle
Description: as §1
Adult wild-type mice were injected with the A3 receptor agonist Cl-IBMECA. They were then subjected to exercise, and their skeletal muscle injuries were quantified using serum CK was used as a marker of muscle injury. […]

[5] = tested on: exercise-induced skeletal muscle injury; test: 15% downhill treadmill exercise-induced skeletal muscle injury, PLCβ2/β3-null mice; type: in vivo, mouse (PLCβ2/β3-null); conditions: PLCβ2/β3-null mice treated, then exercised; P>0.1 vs PBS
Description: as §1
PLCβ2/β3-null mice were used as a model to determine the role of PLCβ2/β3 in mediating the protective effect on exercise-induced injury by Cl-IBMECA. […] Serum CK levels were used to quantify the extent of skeletal muscle injury. […]

[6] = 90 min ischemia, 24 h reperfusion, mean±SE

Compound	EBD-positive area ([1]; 24 h reperfusion, mean±SE)	EBD-positive area, agonist plus DPCPX [1, 6]	EBD-positive area, agonist plus MRS1191 [1, 6]	EBD-positive area [2]	also measured
CCOC(=O)C1=C(C)NC(c2ccccc2)=C(C(=O)OCc2ccccc2)C1C#Cc1ccccc1 (racemic) [MRS1191, 3-ethyl 5-benzyl-2-methyl-6-phenyl-4-phenylethynyl-1,4-(±)-dihydropyridine-3,5-dicarboxylate]	23%±4.4%	–	–	–	–
OC[C@H]1O[C@@H](n2cnc3c(NC4CCCC4)nc(Cl)nc32)[C@H](O)[C@@H]1O [CCPA, 2-chloro-N^6-cyclopentyladenosine]	10.8%±2%	22%±3.3%	12.2%±2.4%	8.5%±2.5%	–
CCNC(=O)[C@H]1O[C@@H](n2cnc3c(N)nc(NCCc4ccc(CCC(=O)O)cc4)nc32)[C@H](O)[C@@H]1O [CGS21680, 2-p-(2-Carboxyethyl)phenethylamino-5′-N-ethylcarboxamidoadenosine]	6.6%±3.5%	14.7%±2.3%	2.4%±1.25%	4%±1.1%	EBD-positive area, agonist plus SCH 442416 ([1]; A2A antagonist SCH 442416 0.017 mg/kg i.p. 30 min before agonist, 90 min ischemia, 24 h reperfusion, mean±SE): 26%±4%
CNC(=O)[C@H]1O[C@@H](n2cnc3c(NCc4cccc(I)c4)nc(Cl)nc32)[C@H](O)[C@@H]1O [Cl-IBMECA, 2-chloro-N^6-(3-iodobenzyl)adenosine-5′-N-methyluronamide]	5.4%±2.6%	4%±1.6%	21.5%±3.5%	22%±3.6%	serum CK level vs. vehicle after exercise ([3]; P=0.0066 vs vehicle): reduction in the serum CK level; percentage of EBD-positive area vs. vehicle after exercise ([3]; P=0.03 vs vehicle): reduced the percentage of EBD-positive area; serum CK vs. vehicle after exercise [4]: reduction in the serum CK; serum CK level vs. PBS after exercise [5]: unable to induce a reduction in the serum CK level
CCCn1c(=O)c2[nH]c(C3CCCC3)nc2n(CCC)c1=O [DPCPX]	19.3%±4.4%	–	–	–	–
C[C@H](Cc1ccccc1)Nc1ncnc2c1ncn2[C@@H]1O[C@H](CO)[C@@H](O)[C@H]1O [R-PIA]	–	–	–	–	extent of injury (EBD staining), result in words ([1]; given prior to ischemia and reperfusion, 0.05 mg/kg i.p.): significant reduction in the extent of injury
